From article PMC12274739, “Differential substrate degradation by super-degron: EGFP in wild-type mouse cells, PD-1 requires CRBN humanization” (iScience, 2025)
Values joined by “and” are separate entries in the source; they are usually repeats but may differ in a detail not shown here. Equal values may be shown once. Read-outs that look alike come from different tables or passages of the source.

Key:
[1] = tested on: mouse PD-1-mCherry-super degron (SD) tag; assay: Degradation of SD-tagged mouse PD-1-mCherry in Jurkat cells, flow cytometry 24 h; format: cell-based, human; conditions: for Bottom, mCherry (mC): no reagent = 1; for Bottom, PD-1 (FITC): surface PD-1, no reagent = 1
Source text: To identify a tag that could efficiently knock down mouse PD-1, we connected various degron tags to the C-terminus of PD-1, including IKZF1/3, Sall4, ZFP91, and SD, and generated Jurkat human T cell lymphoma cell lines that stably expressed the mouse PD-1-degron tag (Figure 1A). […] Therefore, a human cell line was used because it was thought that mouse CRBN would not degrade SD by thalidomide analogs. […] We also analyzed the degradation of total proteins using mCherry.
(C and D) The amount was standardized with the sample to which no reagent was added as 1. Concentrations of reagents were 0 (−), 5, 10, and 20 μM for IKZF minimal, IKZF full-length, and Sall4 tags and 0 (−), 0.5, 5 μM for SD tag. The dots indicate the results of the experiment for each of samples.

EGFP-SD = EGFP-SD (Aequorea victoria, UniProt P42212, F64L/H231L/S65T); format: cell-based, mouse; conditions: stable; for DC50: read-out: DC50, EGFP-SD
EGFP-IKZF = EGFP-IKZF (UniProt P42212+Q8C7D2, F64L/H231L/INS1V/S65T); format: cell-based, mouse; conditions: read-out: DC50, EGFP-IKZF, stable
[2] = molecular target: endogenous PD-1 tagged with SD (Mus musculus, UniProt Q02242+Q8C7D2); assay: Endogenous PD-1-SD on concanavalin A-stimulated spleen T cells, flow cytometry; format: cell-based; conditions: for percentage of activated T cells characterized by FSC high: Con A-stimulated splenocytes; for PD-1 on CD8+ and CD4+ cells: Con A, 24 h after 1 μM POM or 0.1–1 μM IBR
Experimental: The dotted lines show an isotype control without IBR. […] The dotted lines show an isotype control without IBR. […] The black lines show isotype control without IBR. […] Red lines show the boundary between positive and negative. […] (B–J) IBR or solvent (−) was added to cultured splenocytes (B–G) or mESCs (H–J). […] The concentration is 0.1 μM in the rightmost bar in each group, and the left neighbor is a step dilution of one-tenth. Intensities of anti-PD-1-FITC on CD4^+ and CD8^+ T cells were measured by flow cytometry, and the geometric means of fluorescence intensities (MFI) were calculated. The MFI of the isotype control of anti-PD-1-FITC was subtracted from each MFI of anti-PD-1-FITC. The dots indicate the results of the experiment for each of the three samples from different individuals.
Pdcd1^SD/SD/Crbn^I391V/I391V spleen-derived T cells were stimulated in vitro with concanavalin A (Con A) followed by treatment with thalidomide analogs to examine PD-1 expression (Figures 6B–6D and S6A–S6C).
To determine whether the same phenomenon occurs in non-T cells, exogenous PD-1 degradation was examined in mESCs transfected with PD-1-SD expression vectors (Figures 6H–6J and S6E). […] We hypothesized that the degradation efficiency of membrane-localized proteins might be reduced in mouse-type CRBNs. Therefore, we expressed EGFP-SDs with membrane-localized peptides attached to their N-termini in mESCs and added IBR. The degradation efficiency of EGFP-SD with membrane-localization peptide[32] […] Therefore, Pdcd1^SD/SD/Crbn^I391V/I391V mice were used for further analyses.
Splenocytes were harvested after the mice were euthanized. Splenocytes were isolated in RPMI 1640 medium and collected using a 70 μm filter. After treatment with ACT solution to remove red blood cells, splenocyte culture was performed at a density of 2 × 10^6 cells/mL in RPMI 1640 with 10% FBS, Glutamax and penicillin-streptomycin and incubated at 37°C in a 5% CO2 containing atmosphere. To activate T cells, 0.5 μg/mL concanavalin A was added to the medium for 3 days to activate T cells.

[3] = molecular target: PD-1 tagged with SD in the brain (Mus musculus, UniProt Q02242+Q8C7D2); assay: PD-1 expression in brain, western blotting; format: in vivo; conditions: Pdcd1SD/SD/CrbnI391V/I391V mice
Experimental: Although the growth of GL-261 in the brain was inhibited, it is likely that the BBB was destroyed in cancer growth experiments in which GL-261 was transplanted.[34] Therefore, we conducted an experiment in which IBR was administered without the transplantation of brain tumor cell lines as a model for protein degradation experiments in the brain under normal conditions. […] Thus, this degron system can be used in the brain.
Brain tissue was collected after the mice were deeply anesthetized and perfused with PBS to remove blood. They were immediately frozen in liquid nitrogen and homogenized in Nervous Tissue Protein Extraction buffer (TCI, Tokyo, Japan). After centrifuging the lysate at 20,000 g for 10 min at 4°C, heated at 98°C for 3 min with NuPAGE Sample Reducing Agent (Thermo Fisher Scientific) and NuPAGE LDS Sample buffer (Thermo Fisher Scientific), the supernatant was used for SDS-PAGE. SDS-PAGE was performed using a 5–12% polyacrylamide gel (FUJIFILM Wako) and NuPAGE MOPS SDS running buffer (Thermo Fisher Scientific) for 1 h, 120 V. One microgram of protein was loaded in each lane. […] After three washes with PBST, the secondary antibodies were detected using ImmunoStar (FUJIFILM Wako) and LAS 3000 (FUJIFILM). […]

[4] = CrbnI391V/I391V mESCs, Figure 5E
[5] = Pdcd1SD/SD/CrbnI391V/I391V T cells

Chain of EGFP-IKZF (Q8C7D2 whole entry, looked up, stated change not applied, other chains not shown): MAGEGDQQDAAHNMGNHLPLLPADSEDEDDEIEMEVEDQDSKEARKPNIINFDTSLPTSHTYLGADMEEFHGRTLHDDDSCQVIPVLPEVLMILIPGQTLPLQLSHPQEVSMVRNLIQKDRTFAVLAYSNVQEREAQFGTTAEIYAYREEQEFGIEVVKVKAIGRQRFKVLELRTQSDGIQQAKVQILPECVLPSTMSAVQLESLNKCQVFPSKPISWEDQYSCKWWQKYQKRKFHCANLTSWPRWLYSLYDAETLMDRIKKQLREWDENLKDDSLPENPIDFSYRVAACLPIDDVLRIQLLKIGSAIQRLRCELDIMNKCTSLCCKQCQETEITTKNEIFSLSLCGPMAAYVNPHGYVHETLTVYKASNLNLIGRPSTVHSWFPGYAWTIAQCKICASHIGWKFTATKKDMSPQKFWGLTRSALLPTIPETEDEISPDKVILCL
Chain of endogenous PD-1 tagged with SD (Q02242 with tags, fused parts or gaps): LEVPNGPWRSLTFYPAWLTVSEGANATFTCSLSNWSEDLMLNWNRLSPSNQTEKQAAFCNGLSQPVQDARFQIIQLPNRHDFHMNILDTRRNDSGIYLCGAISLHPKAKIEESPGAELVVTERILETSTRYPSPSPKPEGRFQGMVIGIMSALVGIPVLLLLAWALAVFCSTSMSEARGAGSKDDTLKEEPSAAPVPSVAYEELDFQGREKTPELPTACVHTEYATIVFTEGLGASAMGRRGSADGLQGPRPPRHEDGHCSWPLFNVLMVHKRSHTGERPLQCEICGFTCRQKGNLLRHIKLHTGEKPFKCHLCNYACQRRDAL
Chain of endogenous PD-1 tagged with SD (Q8C7D2 whole entry): as the sequence (Q8C7D2 whole entry, looked up, stated change not applied, other chains not shown) above
Chain of endogenous PD-1 tagged with SD (Q3U1J4 whole entry partner): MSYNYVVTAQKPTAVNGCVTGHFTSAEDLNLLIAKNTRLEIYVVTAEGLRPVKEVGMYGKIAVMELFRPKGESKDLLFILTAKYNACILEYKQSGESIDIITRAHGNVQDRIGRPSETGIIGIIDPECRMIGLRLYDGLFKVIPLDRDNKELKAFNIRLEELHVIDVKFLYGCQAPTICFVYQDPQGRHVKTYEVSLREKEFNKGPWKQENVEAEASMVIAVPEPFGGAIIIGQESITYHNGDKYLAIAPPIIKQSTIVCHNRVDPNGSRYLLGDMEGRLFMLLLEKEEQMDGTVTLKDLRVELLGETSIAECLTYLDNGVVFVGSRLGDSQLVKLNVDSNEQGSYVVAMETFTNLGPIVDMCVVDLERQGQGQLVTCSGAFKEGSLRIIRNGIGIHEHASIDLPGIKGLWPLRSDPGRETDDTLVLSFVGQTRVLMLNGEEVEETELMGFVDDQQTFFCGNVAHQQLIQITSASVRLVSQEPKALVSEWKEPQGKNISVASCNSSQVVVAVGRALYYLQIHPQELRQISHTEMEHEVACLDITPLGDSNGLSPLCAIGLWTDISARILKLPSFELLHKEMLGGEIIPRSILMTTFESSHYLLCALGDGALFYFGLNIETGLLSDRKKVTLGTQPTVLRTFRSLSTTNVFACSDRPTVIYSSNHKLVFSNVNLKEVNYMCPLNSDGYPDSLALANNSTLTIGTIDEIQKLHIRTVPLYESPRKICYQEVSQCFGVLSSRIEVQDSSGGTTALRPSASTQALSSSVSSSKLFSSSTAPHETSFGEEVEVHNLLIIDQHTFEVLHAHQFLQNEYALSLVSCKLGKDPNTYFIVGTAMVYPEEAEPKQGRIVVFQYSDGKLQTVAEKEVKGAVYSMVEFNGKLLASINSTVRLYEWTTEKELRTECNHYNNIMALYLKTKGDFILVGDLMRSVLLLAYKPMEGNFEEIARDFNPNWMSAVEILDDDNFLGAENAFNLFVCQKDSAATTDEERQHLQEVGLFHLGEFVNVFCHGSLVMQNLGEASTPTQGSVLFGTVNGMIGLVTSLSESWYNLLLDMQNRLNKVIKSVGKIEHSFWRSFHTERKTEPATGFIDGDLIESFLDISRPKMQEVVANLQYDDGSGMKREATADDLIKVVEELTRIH
Chain of PD-1 tagged with SD in the brain (Q02242 with tags, fused parts or gaps): as the sequence (Q02242 with tags, fused parts or gaps) above
Chain of PD-1 tagged with SD in the brain (Q8C7D2 whole entry): as the sequence (Q8C7D2 whole entry, looked up, stated change not applied, other chains not shown) above
Chain of PD-1 tagged with SD in the brain (Q3U1J4 whole entry partner): as the sequence (Q3U1J4 whole entry partner) above

SMILES | concentration showing the same effect on PD-1-SD [1] [µM] | Bottom, mCherry (mC) [1] | Bottom, PD-1 (FITC) [1] | Bottom, EGFP-SD (EGFP-SD; B6J-S1 mESCs, Figure 5D) | LogDC50, EGFP-SD (EGFP-SD; B6J-S1 mESCs, Figure 5D) [μM] | Bottom, EGFP-SD (EGFP-SD; [4]) | LogDC50, EGFP-SD (EGFP-SD; [4]) [μM] | DC50 (EGFP-SD; B6J-S1 mESCs, Figure 5D) [nM] | DC50 (EGFP-SD; [4]) [nM] | DC50 (EGFP-IKZF; [4]) [nM] | percentage of activated T cells characterized by FSC high [2] | PD-1 on CD8+ and CD4+ cells [2, 5] | also measured
O=C1CC[C@H](N2Cc3c(OCc4ccc(CN5CCOCC5)cc4)cccc3C2=O)C(=O)N1 [IBR, iberdomide] | 0.5 | 0.2415 | 0.1258 | 0.02363 | -3.579 | 0.04851 | -4.174 | 0.264 | 0.067 | 0.639 | not affected | barely observed | Bottom, EGFP-SD (EGFP-SD; B6J-S1 mESCs, Figure 5B): 0.05422; LogDC50, EGFP-SD (EGFP-SD; B6J-S1 mESCs, Figure 5B): -3.152 μM; DC50 (EGFP-SD; B6J-S1 mESCs, Figure 5B): 0.704 nM; DC50 (EGFP-IKZF; B6J-S1 mESCs, Figure 5B): 29.1 nM; PD-1 degradation ([2]; Pdcd1SD/SD/Crbn+/+ T cells): barely degraded; PD-1 removal ([2]; Pdcd1SD/SD/CrbnI391V/I391V T cells, 10^−2 μM and 10^−3 μM IBR): mostly removed; PD-1 expression in the brain ([3]; IBR 10 mg/kg oral, 24 h): no changes in PD-1 expression in the brain
Nc1cccc2c1C(=O)N(C1CCC(=O)NC1=O)C2=O (stereo not shown) [POM, pomalidomide] | 5 | 0.2421 | 0.11 and 0.1083 | 0.01974 | -2.853 | 0.06229 | -2.993 | 1.4 | 1.02 | 5.11 | not affected | barely observed | DC50 ([1]; read-out: DC50, PD-1 (FITC), surface PD-1): 148 nM; DC50 ([1]; read-out: DC50, mCherry (mC), mCherry): 234 nM; PD-1 amount in the brain vs vehicle ([3]; 20 mg/kg POM oral, after 24 h): reduced to half the amount
